For one assay, the system named is EL4-2 (CaCdr1p Q1226R). The experiment in a line: MIC, liquid microdilution. It is filed as cell-based, Saccharomyces cerevisiae. Particulars: 48 h. On the technique in general: In broth dilution the organism is exposed to a series of concentrations in liquid medium.
In another assay the test system is TM5 (CaCdr1p V674F). Description: MIC, liquid microdilution. It counts as cell-based, Saccharomyces cerevisiae. The settings on record: 48 h.
The subject of a further assay is EL6 (CaCdr1p Q1445R). Description: MIC, liquid microdilution. The settings on record: 48 h. It is filed as cell-based, Saccharomyces cerevisiae.
Another assay concerns EL4-1 (CaCdr1p Q1226K). Description: MIC, liquid microdilution. Particulars: 48 h. It is filed as cell-based, Saccharomyces cerevisiae.
Assay [1] deals with AD/CDR1 (Wild type CaCdr1p). Description: MIC, liquid microdilution. It is filed as cell-based, Saccharomyces cerevisiae. The settings on record: 48 h.
The subject of the next assay is AD/pABC3 (Control). Description: MIC, liquid microdilution. It is filed as cell-based, Saccharomyces cerevisiae. Particulars: 48 h.
The next assay concerns EL1/TM2 (CaCdr1p G547R). Description: MIC, liquid microdilution. It counts as cell-based, Saccharomyces cerevisiae. The settings on record: 48 h.
The test system of another assay is EL3 (CaCdr1p Q714K). Description: MIC, liquid microdilution. It is filed as cell-based, Saccharomyces cerevisiae. Particulars: 48 h.
Assay [2] deals with AD/CDR1 (Wild type CaCdr1p; AD/CaCDR1B). The experiment in a line: Agarose diffusion FLC chemosensitization assay. It counts as cell-based, Saccharomyces cerevisiae. The settings on record: ~6 nmole/disk, agarose diffusion, FLC 40 μg ml^−1.
In a further assay the target is Cdr1p ATPase (Candida albicans, UniProt P43071). Description: CaCdr1p ATPase inhibition assay. It is filed as biochemical. The settings on record: read-out: IC50 Cdr1p ATPase; wild type CaCdr1p, oligomycin-sensitive ATPase, pH 7.5.
[3] abbreviates: EL4-2, Q1226R, milbemycins and micafungin, I95, CSM pH 7.0, 30°C.
Where [4] appears, read: TM5, V674F, milbemycins and micafungin, I95, CSM pH 7.0, 30°C.
Setting [5] is: EL6, Q1445R, milbemycins and micafungin, I95, CSM pH 7.0, 30°C.
[6] abbreviates: EL4-1, Q1226K, milbemycins and micafungin, I95, CSM pH 7.0, 30°C.
Where [7] appears, read: AD/CDR1, Wild type, milbemycins and micafungin, I95, CSM pH 7.0, 30°C.
The mark [8] stands for this setting: AD/pABC3, Control, milbemycins and micafungin, I95, CSM pH 7.0, 30°C.
[9] abbreviates: EL1/TM2, G547R, milbemycins and micafungin, I95, CSM pH 7.0, 30°C.
Where [10] appears, read: EL3, Q714K, milbemycins and micafungin, I95, CSM pH 7.0, 30°C.

Starred links: 1 amine or outer side, 2 acyl side, 3 side chain; linkers in the order of their positions; H or OH if unused. Positions of bridges follow the written chain, without caps; N, C: chain ends. Non-standard residues stand in square brackets, D forms with d. Residues, ends and D or L forms follow the SMILES beside them. *: point of attachment. hTyr(3S-OH,4S-OH,3'-OSO3H) = N[C@H](C(=O)O)[C@H](O)[C@@H](O)c1ccc(O)c(OS(=O)(=O)O)c1; Orn(4R-OH,5R-OH) = O=C([C@H](C[C@@H](O)[C@@H](O)N[*:3])N[*:1])[*:2]; Pro(3S-OH,4S-Me) = C[C@H]1CN[C@H](C(=O)O)[C@H]1O; X1 = CCCCCOc1ccc(-c2cc(-c3ccc(C(=O)*)cc3)no2)cc1; Gln(3R-OH) = NC(=O)C[C@@H](O)[C@H](N)C(=O)O; Hyp = O=C(O)[C@@H]1C[C@@H](O)CN1

Sequence of Cdr1p ATPase (P43071 whole entry): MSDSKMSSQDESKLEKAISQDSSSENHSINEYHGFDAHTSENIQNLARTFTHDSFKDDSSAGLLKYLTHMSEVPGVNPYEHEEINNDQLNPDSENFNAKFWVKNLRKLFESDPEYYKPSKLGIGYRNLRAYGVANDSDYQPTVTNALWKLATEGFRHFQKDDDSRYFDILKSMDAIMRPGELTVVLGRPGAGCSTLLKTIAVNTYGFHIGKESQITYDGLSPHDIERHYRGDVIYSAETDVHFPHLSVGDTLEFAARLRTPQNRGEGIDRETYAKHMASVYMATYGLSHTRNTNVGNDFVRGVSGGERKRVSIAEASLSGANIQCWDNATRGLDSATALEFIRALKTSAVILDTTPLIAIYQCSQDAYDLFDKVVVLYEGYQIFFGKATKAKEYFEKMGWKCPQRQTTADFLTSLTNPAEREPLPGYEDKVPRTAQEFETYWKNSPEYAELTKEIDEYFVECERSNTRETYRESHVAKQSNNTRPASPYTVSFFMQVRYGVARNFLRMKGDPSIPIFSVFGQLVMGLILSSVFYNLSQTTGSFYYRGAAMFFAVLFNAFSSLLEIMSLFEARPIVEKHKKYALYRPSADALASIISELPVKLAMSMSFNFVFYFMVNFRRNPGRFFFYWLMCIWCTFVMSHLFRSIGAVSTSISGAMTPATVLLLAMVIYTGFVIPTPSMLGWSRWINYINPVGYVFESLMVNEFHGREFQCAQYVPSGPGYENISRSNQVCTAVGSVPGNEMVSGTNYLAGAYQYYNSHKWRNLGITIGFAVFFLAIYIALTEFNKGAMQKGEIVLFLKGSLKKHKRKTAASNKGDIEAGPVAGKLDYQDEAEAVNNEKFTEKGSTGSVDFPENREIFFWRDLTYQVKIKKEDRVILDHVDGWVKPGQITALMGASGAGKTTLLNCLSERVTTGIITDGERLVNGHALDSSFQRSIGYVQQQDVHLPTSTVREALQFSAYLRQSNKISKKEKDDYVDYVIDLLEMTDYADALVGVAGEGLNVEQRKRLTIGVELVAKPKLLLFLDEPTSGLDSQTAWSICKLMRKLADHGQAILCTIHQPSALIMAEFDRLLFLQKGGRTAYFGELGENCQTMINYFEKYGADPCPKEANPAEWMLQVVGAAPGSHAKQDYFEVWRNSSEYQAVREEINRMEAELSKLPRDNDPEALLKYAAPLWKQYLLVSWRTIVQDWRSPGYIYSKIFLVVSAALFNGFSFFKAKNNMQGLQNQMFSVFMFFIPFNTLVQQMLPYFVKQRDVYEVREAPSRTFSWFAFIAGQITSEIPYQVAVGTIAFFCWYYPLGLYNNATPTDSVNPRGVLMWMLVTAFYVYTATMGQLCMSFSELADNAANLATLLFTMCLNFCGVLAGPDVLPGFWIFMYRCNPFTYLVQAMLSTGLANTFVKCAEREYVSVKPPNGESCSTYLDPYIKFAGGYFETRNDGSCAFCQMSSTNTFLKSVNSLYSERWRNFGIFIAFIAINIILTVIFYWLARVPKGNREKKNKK

Turning to `CC(=O)N1CCN(c2ccc(OCC3COC(Cn4ccnc4)(c4ccc(Cl)cc4Cl)O3)cc2)CC1` (stereo not shown) [Ketoconazole], the MIC in the assay with EL4-2 (CaCdr1p Q1226R) (Saccharomyces cerevisiae, pH 7) worked out at 4 mg/L; against TM5 (CaCdr1p V674F) (Saccharomyces cerevisiae, pH 7) it was 3 mg/L; against EL6 (CaCdr1p Q1445R) (Saccharomyces cerevisiae, pH 7), 4 mg/L; in the assay with EL4-1 (CaCdr1p Q1226K) (Saccharomyces cerevisiae, pH 7), 1 mg/L; in assay [1] (Saccharomyces cerevisiae, pH 7), 4 mg/L; against AD/pABC3 (Control) (Saccharomyces cerevisiae, pH 7), 0.156 mg/L. Besides, the MIC with EL1/TM2 (CaCdr1p G547R) (Saccharomyces cerevisiae, pH 7) worked out at 1 mg/L; in the assay on EL3 (CaCdr1p Q714K) (Saccharomyces cerevisiae, pH 7) it was 4 mg/L.

`Clc1ccc(COC(Cn2ccnc2)c2ccc(Cl)cc2Cl)c(Cl)c1` (stereo not shown) [Miconazole]: the MIC against EL4-2 (CaCdr1p Q1226R) (Saccharomyces cerevisiae, pH 7) was determined as 3 mg/L; with TM5 (CaCdr1p V674F) (Saccharomyces cerevisiae, pH 7) it was 2 mg/L; against EL6 (CaCdr1p Q1445R) (Saccharomyces cerevisiae, pH 7) it was 3 mg/L; with EL4-1 (CaCdr1p Q1226K) (Saccharomyces cerevisiae, pH 7), 1 mg/L; in assay [1] (Saccharomyces cerevisiae, pH 7) it was 2.5 mg/L; in the assay with AD/pABC3 (Control) (Saccharomyces cerevisiae, pH 7), 0.156 mg/L. Moreover, the MIC was found to be 1 mg/L with EL1/TM2 (CaCdr1p G547R) (Saccharomyces cerevisiae, pH 7) and 2.5 mg/L against EL3 (CaCdr1p Q714K) (Saccharomyces cerevisiae, pH 7).

As to Milbemycin α25, the MIC is above 8 mg/L in the assay on EL4-2 (CaCdr1p Q1226R) (setting [3]); above 8 mg/L in the assay with TM5 (CaCdr1p V674F) (setting [4]); above 8 mg/L with EL6 (CaCdr1p Q1445R) (setting [5]); 8 mg/L against EL4-1 (CaCdr1p Q1226K) (setting [6]); 8 mg/L in assay [1] (setting [7]); 8 mg/L with AD/pABC3 (Control) (setting [8]). Also, the MIC is 8 mg/L against EL1/TM2 (CaCdr1p G547R) (setting [9]) and above 8 mg/L against EL3 (CaCdr1p Q714K) (setting [10]).

As to `CCCCCOc1ccc(-c2cc(-c3ccc(C(=O)N[C@H]4C[C@@H](O)[C@@H](O)NC(=O)[C@@H]5[C@@H](O)[C@@H](C)CN5C(=O)[C@H]([C@H](O)CC(N)=O)NC(=O)[C@H]([C@H](O)[C@@H](O)c5ccc(O)c(OS(=O)(=O)O)c5)NC(=O)[C@@H]5C[C@@H](O)CN5C(=O)[C@H]([C@@H](C)O)NC4=O)cc3)no2)cc1` [Micafungin] (X1-[Orn(4R-OH,5R-OH)]T[Hyp][hTyr(3S-OH,4S-OH,3'-OSO3H)][Gln(3R-OH)][Pro(3S-OH,4S-Me)]; lactam 1-C), the MIC in the assay with EL4-2 (CaCdr1p Q1226R) (Saccharomyces cerevisiae, pH 7) worked out at 0.125 mg/L; against TM5 (CaCdr1p V674F) (Saccharomyces cerevisiae, pH 7), 0.125 mg/L; against EL4-1 (CaCdr1p Q1226K) (Saccharomyces cerevisiae, pH 7) it was 0.125 mg/L; in [1] (Saccharomyces cerevisiae, pH 7) it was 0.125 mg/L; in the assay with AD/pABC3 (Control) (Saccharomyces cerevisiae, pH 7) it was 0.25 mg/L; with EL1/TM2 (CaCdr1p G547R) (Saccharomyces cerevisiae, pH 7), 0.125 mg/L.

For the compound `C/C=C(\C)C(=O)OCC1=C[C@H]2C(=O)O[C@H]3C[C@@H](C/C=C(\C)C[C@@H](C)/C=C/C=C4\CO[C@H]([C@@H]1O)[C@@]42O)O[C@@]1(CC[C@H](C)[C@@H](C)O1)C3` [Milbemycin α20], the minimum inhibitory concentration (MIC) (against EL4-2 (CaCdr1p Q1226R) (setting [3]); in the assay with TM5 (CaCdr1p V674F) (setting [4]); in the assay on EL6 (CaCdr1p Q1445R) (setting [5]); against EL4-1 (CaCdr1p Q1226K) (setting [6]); in [1] (setting [7]); against AD/pABC3 (Control) (setting [8])) was above 8 mg/L in each case. Also, the MIC in the assay on EL1/TM2 (CaCdr1p G547R) (setting [9]) and against EL3 (CaCdr1p Q714K) (setting [10]) was above 8 mg/L throughout.

Take `CC/N=c1\cc2oc3cc(NCC)c(C)cc3c(-c3ccccc3C(=O)OCC)c-2cc1C` [Rhodamine 6G]: the minimum inhibitory concentration (MIC) against EL4-2 (CaCdr1p Q1226R) (Saccharomyces cerevisiae, pH 7) was determined as 50 µM; in the assay with TM5 (CaCdr1p V674F) (Saccharomyces cerevisiae, pH 7), 50 µM; in the assay on EL6 (CaCdr1p Q1445R) (Saccharomyces cerevisiae, pH 7), 75 µM; against EL4-1 (CaCdr1p Q1226K) (Saccharomyces cerevisiae, pH 7), 50 µM; in [1] (Saccharomyces cerevisiae, pH 7), 75 µM; with AD/pABC3 (Control) (Saccharomyces cerevisiae, pH 7), 1 µM. In addition, the MIC in the assay on EL1/TM2 (CaCdr1p G547R) (Saccharomyces cerevisiae, pH 7) turned out to be 50 µM; in the assay with EL3 (CaCdr1p Q714K) (Saccharomyces cerevisiae, pH 7) it was 75 µM.

Take D-NH2-FFKWQR(Mtr)KK-CONH2: the “chemosensitization of cells overexpressing CaCdr1p to FLC” value in [2] was “chemosensitizing activity”.

Turning to D-NH2-FFKWQRRR-CONH2, the 50% inhibitory concentration (IC50) in the assay with Cdr1p ATPase stood at 2 µM.

Turning to `OC(Cn1cncn1)(Cn1cncn1)c1ccc(F)cc1F` [Fluconazole], the MIC against EL4-2 (CaCdr1p Q1226R) (Saccharomyces cerevisiae, pH 7) is 240 mg/L; in the assay with TM5 (CaCdr1p V674F) (Saccharomyces cerevisiae, pH 7), 160 mg/L; in the assay on EL6 (CaCdr1p Q1445R) (Saccharomyces cerevisiae, pH 7), 240 mg/L; in the assay on EL4-1 (CaCdr1p Q1226K) (Saccharomyces cerevisiae, pH 7), 80 mg/L; in assay [1] (Saccharomyces cerevisiae, pH 7), 240 mg/L; in the assay with AD/pABC3 (Control) (Saccharomyces cerevisiae, pH 7), 0.5 mg/L. The MIC against EL1/TM2 (CaCdr1p G547R) (Saccharomyces cerevisiae, pH 7) came out at 100 mg/L; against EL3 (CaCdr1p Q714K) (Saccharomyces cerevisiae, pH 7), 240 mg/L.

As to Enniatin, the minimum inhibitory concentration (MIC) in the assay on EL4-2 (CaCdr1p Q1226R) (EL4-2, Q1226R, cycloheximide, enniatin and FK506, CSM pH 7.0, 30°C) was found to be 4 mg/L; in the assay with TM5 (CaCdr1p V674F) (TM5, V674F, cycloheximide, enniatin and FK506, CSM pH 7.0, 30°C) it was 4 mg/L; against EL6 (CaCdr1p Q1445R) (EL6, Q1445R, cycloheximide, enniatin and FK506, CSM pH 7.0, 30°C), 4 mg/L; in the assay on EL4-1 (CaCdr1p Q1226K) (EL4-1, Q1226K, cycloheximide, enniatin and FK506, CSM pH 7.0, 30°C) it was 4 mg/L; in [1] (AD/CDR1, Wild type, cycloheximide, enniatin and FK506, CSM pH 7.0, 30°C), 4 mg/L; against AD/pABC3 (Control) (AD/pABC3, Control, cycloheximide, enniatin and FK506, CSM pH 7.0, 30°C) it was 4 mg/L. For the same compound, the MIC in the assay with EL1/TM2 (CaCdr1p G547R) (EL1/TM2, G547R, cycloheximide, enniatin and FK506, CSM pH 7.0, 30°C) was determined as 4 mg/L; against EL3 (CaCdr1p Q714K) (EL3, Q714K, cycloheximide, enniatin and FK506, CSM pH 7.0, 30°C), 4 mg/L.

What is called MIC is the lowest concentration found to suppress growth. Read a low MIC as inhibition by little substance. In general, IC50 refers to the concentration needed to halve the response being measured.

(Values after PMC3418399 (Molecular microbiology, 2012).)
